Patent publication US20070059785A1, “Biomarkers in cancer” (SMITHKLINE BEECHAM CORPORATION, priority 2003, published 2007)

Columns and labels:
[1] = system: Erk1/2; experiment: Western blot of activated Erk1/2 (p-Erk1/2) in S1 cells; assay type: cell-based, human; conditions: 72 h
Source text: Proteins were transferred to Immobilon-P or nitrocellulose membranes.
ErbB2 overexpression is associated with the activation of downstream pathways involved in the propagation of proliferative signals such as Erk1/2 MAP kinases (Janes et al., Oncogene, 9:3601(1994)). […].

[2] = system: Erk1/2; experiment: Western blot of p-Erk1/2 in BT474 cells; assay type: cell-based, human; conditions: for p-Erk1/2: BT474, exponentially growing, 72 h
Description: (§1) The erbB2 overexpressing human breast adenocarcinoma cell line, BT474, was obtained from the American Type Culture Collection (Rockville, M, USA). […] The EGFR overexpressing LICR-LON-HN5 head and neck carcinoma cell line, HN5, was kindly provided by Helmout Modjtahedi at the Institute of Cancer Research, Surrey, U.K.
(§2) For IP Western blots, equivalent amounts of protein were precleared with Protein G Plus/Protein A agarose overnight at 4° C. Precleared lysates were then incubated overnight at 4° C. with specific antibodies. Immune complexes were precipitated with Protein G Plus/Protein A agarose beads, washed in RIPA buffer and then boiled in sample loading buffer. Steady state levels of total Erk1/2 and activated Erk1/2 (p-Erk) as well as total AKT protein and activated AKT (p-AKT) protein were assessed by Western blot. […] Proteins were transferred to Immobilon-P or nitrocellulose membranes. Efficiency and equal loading of proteins was evaluated by Ponceau S staining. Membranes were blocked for 1 hr in TBS (25 mM Tris-HCl, pH 7.4, 150 mM NaCl, 2.7 mM KCl) containing 4% (w/v) lowfat milk or 3% BSA (w/v). Membranes were then probed with specific antibodies recognizing target proteins. Proteins were visualized with the SUPERSIGNAL® West Femto Maximum sensitivity substrate kit (Pierce).
BT474 is an erbB2 overexpressing breast carcinoma line that also expresses EGFR, albeit at lower levels. BT474 cells constitutively express activated erbB2 (p-Tyr/erbB2). […] Cell lysates were prepared and total Erk1/2 and activated Erk1/2 (p-Erk1/2) were assessed by Western blot.

[3] = system: Erk1/2; experiment: Western blot of p-Erk1/2 in HN5 cells; assay type: cell-based, human; conditions: for p-Erk1/2: HN5, exponentially growing, 72 h
Description: as §1, §2
Cell lysates were prepared and total Erk1/2 and activated Erk1/2 (p-Erk1/2) were assessed by Western blot.

[4] = system: Hb4a cells; experiment: Hb4a cell growth, viable cell count by trypan blue exclusion; assay type: cell-based; conditions: Homo sapiens, 72 h, serum-free, three independent experiments, read-out: inhibition of cell growth compared with vehicle treated controls
Description: Exponentially growing Hb4a cells were cultured in 35 mm petri dishes with serum-free medium containing 1.5% BSA. […] Viable cells were counted after 72 h using trypan blue exclusion.

[5] = system: AKT; experiment: HN5 tumor xenograft, p-AKT and total AKT by Western blot; assay type: in vivo, CD-1 nude mice
Description: (§3) Total Erk1/2, total AKT, activated Erk1/2 (p-Erk1/2), and activated AKT (p-AKT) were assessed by Western blot loading equal amounts of protein from tumor biopsies.
HN5 cells were grown in DMEM supplemented with 10% fetal bovine serum, sodium pyruvate and L-glutamine at 37° C. in a 95/5% air/CO2 atmosphere. […] Cells (2×10^6/mouse) in 0.2 ml were injected into the right flank of CD-1 nude mice. Female CD-1 nude mice were acquired from Charles River Laboratories. Mice were maintained in filter-topped cages in an aseptic environment with laminar flow filtered ventilation. […] Tumors were biopsied pre-treatment and 4 hours after the last dose. All animal surgery was conducted under aseptic conditions. For the initial biopsy, mice were anesthetized with isofluorane inhalation. The skin over the tumor was disinfected with iodine. A small hemostat was used to tease away the skin from the tumor, and scissors were used to make a 1 cm incision over the tumor. A scalpel and forceps were used to remove approximately 100 mg of tumor. The tumor was then frozen in liquid nitrogen. Wound clips were used to close the incision. The anesthetized mice were kept warm until they recovered mobility, usually less than 1-2 minutes. For the terminal biopsy, mice were euthanized with CO2 inhalation, and the remainder of the tumor excised. HN5 tumors were placed on dry ice in vials containing cold isopentane, and stored at −80 C prior to study. BT474 tumor samples were fixed for 2-3 hours in phosphatase inhibitor consisting of sodium fluoride and sodium pervanadate in 10% neutral buffered formalin. Following fixative treatment, BT474 samples were washed in water and stored in 70% ethanol prior to study. Cell extracts were prepared by homogenization in RIPA buffer at 4° C.
as §3

[6] = molecular target: T1, erbB2 (Homo sapiens, UniProt P04626); experiment: BT474 tumor xenograft, p-Tyr/ErbB-2 and total ErbB-2 by Western blot; assay type: in vivo, C.B-17 SCID mice; conditions: 100 mg/kg
Description: (§4) The tumor implant was removed after the final treatment dose. Activated receptor (p-Tyr/ErbB-2) was assessed by IP Western blot and total ErbB-2 steady state protein (ErbB-2), total Erk1/2 and activated Erk1/2 (p-Erk1/2) were assessed by Western blot loading equal amounts of protein from tumor biopsies.
Cell extracts were prepared by homogenization as described for HN5 xenografts.
as §4, with “BT474” for “The”, “xenografts (subcutaneous) were established as described in Materials and Methods. […] Controls were treated with vehicle alone. […]” for “implant was removed after the final treatment dose.”

[7] = molecular target: T1, erbB2; experiment: Tumor xenografts, activated and total erbB2 by quantitative IHC; assay type: in vivo, mice; conditions: HN5 and BT474 xenografts, 200 mg/kg oral once daily
[8] = system: Erk1/2; experiment: Clinical tumor biopsies, localization of total Erk1/2 by IHC; assay type: in vivo, human; conditions: patient 361, Day 21; baseline exclusively intra-nuclear; data not shown
Source text: Upon activation, p-Erk1/2 relocates to the nucleus where it regulates transcription of a variety of genes involved in tumor growth, adhesion, and angiogenesis.

[9] = system: HN5 cells; conditions: Rusnak et al.; cited from earlier work
[10] = system: AKT; conditions: S1 cells; not reversed by EGF; data of PCT/US03/12739; cited from earlier work
[11] = system: S1 cells; experiment: Cell cycle analysis (propidium iodide, flow cytometry), apoptosis of S1 cells; conditions: 5 μM, 72 h
Description: The percentage of cells in G1, S phase, and G2/M are indicated. The sub-G1 peak represents the apoptotic fraction.
Cells were harvested and fixed with 70% ethanol in PBS. Cell pellets were then resuspended in 0.5 ml PBS containing propidium iodide (50 μg/ml) and DNase-free RNase (100 μg/ml). Cell cycle analysis was performed using a BD Flow Cytometer (Becton Dickinson, San Jose, Calif., USA).
After 72 h, cell cycle analysis was performed using propidium iodide staining and flow cytometry as described in Materials and methods.

T1 sequence (P04626 23-1255): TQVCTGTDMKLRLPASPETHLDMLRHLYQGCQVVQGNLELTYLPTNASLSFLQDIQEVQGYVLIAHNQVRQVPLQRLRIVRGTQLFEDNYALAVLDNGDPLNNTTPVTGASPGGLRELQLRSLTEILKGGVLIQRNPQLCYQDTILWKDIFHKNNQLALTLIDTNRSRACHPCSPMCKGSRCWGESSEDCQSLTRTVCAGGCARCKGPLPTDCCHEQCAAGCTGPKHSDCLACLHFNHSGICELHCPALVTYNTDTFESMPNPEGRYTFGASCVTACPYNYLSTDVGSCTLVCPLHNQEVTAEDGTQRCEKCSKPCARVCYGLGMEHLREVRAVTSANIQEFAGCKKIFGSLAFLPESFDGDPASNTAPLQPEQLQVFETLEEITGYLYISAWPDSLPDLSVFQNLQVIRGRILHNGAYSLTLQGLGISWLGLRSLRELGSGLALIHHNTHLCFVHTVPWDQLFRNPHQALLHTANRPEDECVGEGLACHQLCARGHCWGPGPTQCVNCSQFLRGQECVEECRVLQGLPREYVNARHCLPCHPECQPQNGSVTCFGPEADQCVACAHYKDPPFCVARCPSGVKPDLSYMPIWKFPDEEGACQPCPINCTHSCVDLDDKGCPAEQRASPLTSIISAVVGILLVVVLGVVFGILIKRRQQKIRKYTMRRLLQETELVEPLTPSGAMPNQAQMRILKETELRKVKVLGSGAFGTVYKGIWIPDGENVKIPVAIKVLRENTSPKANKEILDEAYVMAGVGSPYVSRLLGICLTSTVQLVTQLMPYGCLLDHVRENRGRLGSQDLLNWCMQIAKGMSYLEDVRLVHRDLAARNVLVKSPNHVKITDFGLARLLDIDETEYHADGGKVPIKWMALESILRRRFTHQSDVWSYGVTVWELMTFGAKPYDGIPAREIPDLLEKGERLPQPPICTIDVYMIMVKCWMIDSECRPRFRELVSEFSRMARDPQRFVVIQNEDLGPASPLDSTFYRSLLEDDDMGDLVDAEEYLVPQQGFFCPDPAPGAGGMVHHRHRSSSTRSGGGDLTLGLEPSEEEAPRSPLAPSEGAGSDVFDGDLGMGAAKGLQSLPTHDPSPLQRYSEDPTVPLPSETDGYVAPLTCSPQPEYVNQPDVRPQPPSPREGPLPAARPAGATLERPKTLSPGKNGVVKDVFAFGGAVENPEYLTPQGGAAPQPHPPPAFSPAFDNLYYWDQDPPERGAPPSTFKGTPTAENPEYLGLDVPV

CS(=O)(=O)CCNCc1ccc(-c2ccc3ncnc(Nc4ccc(OCc5cccc(F)c5)c(Cl)c4)c3c2)o1 [GW572016, N-{3-Chloro-4-[(3-fluorobenzyl)oxy]phenyl}-6-[5-({[2-(methylsulfonyl)ethyl]amino}methyl)-2-furyl]-4-quinazolinamine]
total steady state Erk protein ([1]; 0.5-5 μM): remained unchanged | inhibition at 0.5 µM ([1]; Homo sapiens, 500 nM, vs vehicle, read-out: inhibition of activated, phosphorylated Erk1/2 (p-Erk)): > 50% | inhibition at 2.5 µM ([1]; Homo sapiens, 2.5 μM, vs vehicle, read-out: inhibition of activated, phosphorylated Erk1/2 (p-Erk)): > 50% | inhibition at 5 µM ([1]; Homo sapiens, 5 μM, vs vehicle, read-out: inhibition of activated, phosphorylated Erk1/2 (p-Erk)): 100% | EGF stimulation of p-Erk1/2 ([2]; BT474, 1 μM, 24 h serum-free, EGF 50 ng/ml): inhibited | total Erk1/2 steady state protein levels ([2]; BT474, 72 h, GW572016 0.5 or 1 μM, Herceptin 10 μg/ml): Neither Herceptin™ nor GW572016 reduced | p-Erk1/2 ([2]; 500 nM): inhibited | p-Erk1/2 ([2]; 1 μM): inhibited | downstream p-Erk1/2 ([3]; HN5, 5 μM, 24 h serum-free, not reversed by EGF): inhibited | total Erk1/2 steady state protein levels ([3]; HN5, 72 h, GW572016 0.5 or 1 μM, Herceptin 10 μg/ml): Neither Herceptin™ nor GW572016 reduced | p-Erk1/2 ([3]; 500 nM): inhibited | p-Erk1/2 ([3]; 1 μM): inhibited | inhibition at 2.5 µM [4]: 50% | effect on p-AKT ([5]; 10 mg/kg, data not shown): little effect | p-AKT in tumors ([5]; 30 mg/kg/dose): inhibited | total steady state AKT protein levels ([5]; 30 mg/kg/dose): without affecting | total erbB2 steady state protein levels [6]: without effects | erbB2 total protein [7]: neither EGFR nor erbB2 total protein was affected | activated erbB2 ([7]; data not shown): inhibition | localization of total Erk1/2 staining [8]: almost entirely cytoplasmic | apoptosis [9]: increased only slightly | baseline phosphorylation of AKT [10]: inhibits | increase in percentage of apoptotic cells vs vehicle [11]: 23 fold | percentage of cells in S phase and G2/M [11]: concomitant reduction | percentage of apoptotic cells (sub-G1 peak) ([11]; vehicle control 2%): 46%
